The experiment deals with T1, Ubiquitin carboxyl-terminal hydrolase 2 [258-605] (Homo sapiens, UniProt O75604).
T1 construct: 258-605
T1 sequence (O75604 whole entry): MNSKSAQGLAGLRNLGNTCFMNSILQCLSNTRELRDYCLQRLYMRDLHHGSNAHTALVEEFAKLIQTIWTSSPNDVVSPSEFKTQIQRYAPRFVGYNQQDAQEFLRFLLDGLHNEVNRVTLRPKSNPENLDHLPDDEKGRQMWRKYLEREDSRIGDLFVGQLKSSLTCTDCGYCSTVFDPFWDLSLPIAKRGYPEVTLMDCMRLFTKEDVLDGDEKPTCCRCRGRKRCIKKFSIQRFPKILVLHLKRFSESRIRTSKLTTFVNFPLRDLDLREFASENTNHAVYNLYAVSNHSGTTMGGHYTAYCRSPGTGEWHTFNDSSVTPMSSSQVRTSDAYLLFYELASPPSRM
Description: Ub-AMC-Hydrolysis Assay. The procedure: The assays were performed using Infinite 200 PRO - Tecan plate reader and 96-well, black Greiner microplates in a […] reaction volume. […]

pIC50: −log10 of the molar value.

The record followed here is BindingDB's records for doi:10.1016/j.chembiol.2017.03.002 (Jagiellonian University, 2017).

`COC(=O)C1CC[C@@]2(C)[C@H](CC[C@@H]3[C@@H]2CC[C@]2(C)[C@@H]([C@H](C)CCC(=O)O)CC[C@@H]32)C1` (stereo partly specified) [LCAE] showed a pIC50 of 5.24.
